Patent publication US11564913B2, “Compositions and methods for treating cancer” (Children's Hospital Medical Center, priority 2019, dated 2023)
pKd: −log10 of the molar value.

Tests used:
[1] = tested on: p190-BCR-ABL leukemic propagating cells; assay: Serial transplantation into secondary recipients (leukemic propagating activity); assay type: in vivo, mice; conditions: week 5 post transplantation
Text: LDBM cells were transduced with bicistronic p190-BCR-ABL1/EGFP retrovirus and transplanted into recipient mice. After initial assessment of leukemic burden, drugs were delivered in subcutaneously implanted osmotic pumps, each lasting two weeks. (D) Kaplan-Meier survival plot of secondary mice transplants with the 10^6-cell dilution.
(F) Count (%) of residual leukemic (EGFP^+-BCR-ABL1) cells in peripheral blood at weeks 3 and 5 for the secondary transplant mice from FIG. 1D. (G) Kaplan-Meier survival plot of secondary mice transplants with the 0.3×10^6 cell-dilution. (H) Count (%) of residual leukemic (EGFP^+-BCR-ABL1) cells in peripheral blood at weeks 3 and 5 for the secondary transplant mice from (G). (I & J) similar to G & H but with the 0.1×10^6 cell-dilution.

recombinant Vav3 = target: T1, recombinant Vav3 (Homo sapiens, UniProt Q9UKW4); assay: Microscale thermophoresis (MST) binding; conditions: one molecule of IODVA1 binds, read-out: binding affinity (Kd)
T1 construct: His6; made in house; host or cells: E. coli BL21 (DE3) or T7 Express, co-expressed with groEL-groES
Procedure: FIG. 14: IODVA1 targets Vav3 in vitro and in vivo. (A) Ba/F3 cells expressing empty vector Mieg3 or p190-BCR-ABL1 were treated with vehicle control or IODVA1 (IO1, 3 μM) for 30 min and incubated with GST-Rac and glutathione beads. Beads were washed and the protein complexes were separated on SDS-PAGE and immunoblotted for pVav3. Input Vav3 was used as control. (B) Binding affinity (Kd) between IODVA1 and Vav3 (green), LARG (brown), and RacGDP (blue). […] Error bars=SD; N=3. (C) Quantification of the average number of colonies made by bone marrow wild-type (black) and Vav3^−/− (lilac) p190-BCR-ABL1 leukemic cells treated with vehicle control or IODVA1 (IO1, 1 and 3 μM) (* p≤0.05; ** p≤0.01; *** p≤0.001; ns, not significant). (D) Representative histogram data of the cell cycle analysis of wild-type (black and grey bars) and Vav3^−/− (dark and light lilac) bone marrow cells expressing p190-BCR-ABL and treated with vehicle control or IODVA1 (IO1, 3 μM) for 20 h. (E) Quantification by densitometry of the pVav3 band from FIG. 14A. […]
To test this hypothesis, we measured its binding affinity (Kd) to recombinant Vav3 and Rac1 using microscale thermophoresis (MST); the catalytic domain (DH/PH) of the RhoGEF LARG served as negative control. […] Second, like Vav3, LARG contains a DH/PH domain responsible for the exchange activity such that any non-specific binding to this domain should be detected. […]

T1 sequence (Q9UKW4 whole entry, species assumed): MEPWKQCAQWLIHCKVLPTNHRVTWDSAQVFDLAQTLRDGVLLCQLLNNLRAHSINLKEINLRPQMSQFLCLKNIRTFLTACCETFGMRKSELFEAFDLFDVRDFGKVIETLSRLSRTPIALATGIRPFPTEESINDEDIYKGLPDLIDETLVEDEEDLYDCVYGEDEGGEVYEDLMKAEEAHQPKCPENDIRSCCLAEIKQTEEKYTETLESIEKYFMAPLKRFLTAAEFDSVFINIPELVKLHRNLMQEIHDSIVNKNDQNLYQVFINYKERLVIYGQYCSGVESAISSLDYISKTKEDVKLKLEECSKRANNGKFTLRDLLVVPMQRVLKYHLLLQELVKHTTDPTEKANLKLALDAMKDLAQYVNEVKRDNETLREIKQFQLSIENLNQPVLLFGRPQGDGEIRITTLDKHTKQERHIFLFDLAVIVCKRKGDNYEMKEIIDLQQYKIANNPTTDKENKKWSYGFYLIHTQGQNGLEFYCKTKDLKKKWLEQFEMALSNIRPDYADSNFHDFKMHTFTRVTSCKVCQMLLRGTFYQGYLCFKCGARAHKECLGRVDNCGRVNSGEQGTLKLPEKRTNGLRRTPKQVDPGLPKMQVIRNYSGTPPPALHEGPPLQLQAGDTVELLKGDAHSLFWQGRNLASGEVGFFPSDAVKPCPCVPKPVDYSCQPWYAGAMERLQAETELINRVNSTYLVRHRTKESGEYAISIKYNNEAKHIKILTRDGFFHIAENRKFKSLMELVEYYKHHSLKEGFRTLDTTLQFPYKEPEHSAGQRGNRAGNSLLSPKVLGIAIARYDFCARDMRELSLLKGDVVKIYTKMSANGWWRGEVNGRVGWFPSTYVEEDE

OC1(c2ccccn2)N=C(Nc2nc3ccccc3[nH]2)N=C1c1ccccn1 (centres unmarked) [IODVA1, (Z)-2-((1H-benzo[d]imidazol-2-yl)imino)-4,5-di(pyridin-2-yl)-2,5-dihydro-1H-imidazol-5-ol]
eradication of leukemic cell burden in peripheral blood of secondary transplanted mice [1]: superior to imatinib | pKd (recombinant Vav3): 6.29
